# In patent publication US11529350B2, “Tyrosine kinase non-receptor 1 (TNK1) inhibitors and uses thereof” (Sumitomo Pharma Oncology, Inc., priority 2019, dated 2022):
# Key:
# A549 cells = test: Combination with bortezomib, A549 cell confluency (Incucyte); type: cell-based; conditions: 1 nM alone, two independent experiments
# Procedure: A549 cells were seeded in log phase (e.g., at 40-60% confluency) in a well plate. Drug treatments were: no drug treatment, DMSO, bortezomib at 50 nM, 10 nM, 5 nM, 2 nM or 1 nM, Example No. 13 at 10 nM, and bortezomib 50 nM, 10 nM, 5 nM, 2 nM or 1 nM combined with Example No. 13 at 10 nM. The DMSO concentrations were kept constant (including DMSO control) to control for any confounding DMSO toxicity.
# Drug addition protocol: On day 1, cells were seeded at 60,000 cells/well, and incubated for 24 hours to allow adherence. On day 2, media was aspirated and replaced with 500 μl of the drug media preparations described below in correlating wells. The plates were placed in Incucyte for 7-14 days, and cell confluency was measured every 2 hours. […]
# [1] = test system: phospho-STAT5 in L540 cells; test: In vitro pSTAT5 assay (ELISA) in L540 cells; type: cell-based; conditions: Homo sapiens, L-540, 24 hours, normalized to cell viability, read-out: P-STAT5 Assay IC50
# Procedure: The L540 cell line harbors a truncating mutation in the C-terminal regulatory region of the protein. As a consequence, TNK1 in L540 cells is constitutively active in phosphorylating key proteins, including STAT5. In TNK1 wild-type conditions (e.g., K562 CML cells), STAT5 phosphorylation is achieved in a TNK1-independent fashion. As such, reductions in phospho-STAT5 signal specific to the L540 cells are a good readout of TNK1 inhibitor function.
# Methods: The in vitro pSTAT5 assay was performed with STAT5 AB (pY964/699) SimpleStep ELISA Kit (Abcam No. ab176656) according to the manufacturer's protocol. Briefly, L540 cells were grown in RPMI1640 media under standard culture conditions (10% FBS with penicillin/streptomycin). To assess test compound effects, cells were plated in 96 well plates (250,000 cells/mL) and allowed to grow overnight. Cells were subsequently treated with varying concentrations of test compound for 24 hours, before being harvested and interrogated with the STAT5 AB (pY964/699) SimpleStep ELISA Kit according to the manufacturer's protocol. Phospho-STAT5 signal was normalized to cell viability, as assessed by the CellTiter-Glo assay (Promega, Cat. No. G7570) on treated cells. TNK1 inhibitor IC50s were determined using Graphpad Prism software on normalized phospho-STAT5 measurements.
# TNK1 [2] = biological target: T1, TNK1 (Homo sapiens, UniProt Q13470); test: TNK1 NanoBRET target engagement assay (HEK293); type: cell-based; design: host or cells: HEK293; conditions: HEK293 cells, 2 hours; read-out: NanoBRET TE Assay (HEK293) IC50
# T1 sequence (Q13470 1-666): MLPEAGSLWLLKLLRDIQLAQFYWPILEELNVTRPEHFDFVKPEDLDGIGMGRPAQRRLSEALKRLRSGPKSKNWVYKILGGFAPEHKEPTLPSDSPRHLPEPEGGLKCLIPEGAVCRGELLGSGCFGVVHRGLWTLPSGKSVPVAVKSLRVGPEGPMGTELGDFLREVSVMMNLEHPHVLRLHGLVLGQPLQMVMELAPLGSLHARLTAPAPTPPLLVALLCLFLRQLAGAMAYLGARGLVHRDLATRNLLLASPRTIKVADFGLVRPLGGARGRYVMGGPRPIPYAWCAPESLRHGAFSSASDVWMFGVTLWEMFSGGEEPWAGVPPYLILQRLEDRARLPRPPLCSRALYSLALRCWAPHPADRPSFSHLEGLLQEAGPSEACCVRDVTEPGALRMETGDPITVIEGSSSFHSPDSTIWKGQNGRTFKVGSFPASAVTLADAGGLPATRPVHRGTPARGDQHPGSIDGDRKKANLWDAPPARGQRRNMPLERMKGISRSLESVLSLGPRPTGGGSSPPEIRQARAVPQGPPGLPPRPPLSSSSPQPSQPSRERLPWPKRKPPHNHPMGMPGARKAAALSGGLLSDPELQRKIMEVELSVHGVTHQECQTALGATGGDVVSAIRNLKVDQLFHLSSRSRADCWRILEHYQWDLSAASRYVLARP
# From the text: The NanoBRET target engagement (TE) assay (Promega, Madison, Wis.) enables the interrogation of the displacement of a tracer compound in the active site of a recombinant kinase by a test compound in the intracellular setting. The assay enables simultaneous testing of permeability, solubility, and kinase inhibition, and tests the specific interaction of test agents with a kinase of interest, here, TNK1. The assay is based on the principle of bioluminescence resonance energy transfer (BRET). In the assay, a plasmid-encoded, luciferase-tagged form of TNK1 is transfected into cells. A tracer compound is tagged with a fluorophore that fluoresces when bound to the TNK1 protein. Readout is luminescence and fluorescence. Test compounds show activity by displacing the tracer, thus disrupting BRET.
# Methods: The TNK1 NanoBRET TE assays were performed according to the manufacturer's protocol. Briefly, Nanoluc-TNK1 Fusion Vector (Promega, Madison, Wis., Cat. No. NV2181) was transfected into HEK293 cells in bulk (8×10^6 cells in a T175 flask). Up to 30 hours post-transfection, cells were harvested by trypsinization, resuspended at a concentration of 2×10^5 cells/mL, and seeded in 96-well plates at 85 μL/well. A test compound and the K5 tracer were added to each well, and the cells were incubated for 2 hours. Luminescence ([…]) and fluorescence ([…]) were measured to determine a BRET ratio. IC50 values were determined from the BRET ratios using the Graphpad Prism software (GraphPad Software, San Diego, Calif.).
# TNK1 [3] = biological target: T1, TNK1; test: RBC HotSpot Kinase Assay; type: biochemical; design: purchased Reaction Biology Corp., Malvern, Pa; conditions: ATP 10 μM
# Procedure: The RBC HotSpot Kinase assay (Reaction Biology Corp., Malvern, Pa.) was used to evaluate the ability of test compounds to modulate (e.g., inhibit) the enzymatic activity of human TNK1 (UniProt Accession No. Q13470) in the following reaction:
# Reagent: Base Reaction buffer; 20 mM Hepes (pH 7.5), 10 mM MgCl2, 1 mM EGTA, 0.02% Brij35, 0.02 mg/ml BSA, 0.1 mM Na3VO4, 2 mM DTT, 1% DMSO. Required cofactors were added individually to each kinase reaction.
# Compound handling: Test compounds were dissolved in 100% DMSO to specific concentration. The serial dilution was conducted by Integra Viaflo Assist in DMSO.
# 1. Prepared substrate (peptide substrate, poly[Glu:Tyr] (4:1), 0.2 mg/ml; ATP 10 μM) in freshly prepared Reaction Buffer;
# 2. Delivered any required cofactors to the substrate solution;
# 3. Delivered kinase (TNK1) into the substrate solution and gently mixed;
# 4. Delivered compounds in 100% DMSO into the kinase reaction mixture by Acoustic technology (Echo550; nanoliter range), incubated for 20 minutes at room temperature;
# 5. Delivered ^33P-ATP (specific activity 10 μCi/μl) into the reaction mixture to initiate the reaction;
# 6. Incubated for 2 hours at room temperature;
# 7. Detected radioactivity by filter-binding method;
# 8. Kinase activity data were expressed as the percent remaining kinase activity in test samples compared to vehicle (dimethyl sulfoxide) reactions. IC50 values and curve fits were obtained using Prism (GraphPad Software).
IC50 (TNK1 [2]) [nM],IC50 (TNK1 [3]) [nM],Structure (SMILES),"cell growth inhibition, alone (A549 cells)",IC50 [1] [nM]
–,–,"CC(C)C[C@H](NC(=O)[C@H](Cc1ccccc1)NC(=O)c1cnccn1)B(O)O [Bortezomib, bortezomib, reference compound]",no inhibition of cell growth,–
> 1000,5 to 15,"CN1CCN(c2ccc(Nc3ncc(Cl)c(Nc4cccnc4N(C)C)n3)c3ccccc23)CC1 [Example No. 17, 5-chloro-N4-(2-(dimethylamino)pyridin-3-yl)-N2-(4-(4-methylpiperazin-1-yl)naphthalen-1-yl)pyrimidine-2,4-diamine]",–,> 50
150 to 1000,< 5,"COc1cc(N2CCN(C)CC2)c(C)cc1Nc1ncc(Cl)c(Nc2cccnc2N2CCCC2)n1 [compound 8, 5-chloro-N^2-(2-methoxy-5-methyl-4-(4-methylpiperazin-1-yl)phenyl)-N^4-(2-(pyrrolidin-1-yl)pyridin-3-yl)pyrimidine-2,4-diamine]",–,5 to 50
150 to 1000,< 5,"COc1cc(N2CCN(C)CC2)c(C)cc1Nc1ncc(Cl)c(Nc2cccnc2N(C)C)n1 [compound 6, 5-chloro-N^4-(2-(dimethylamino)pyridin-3-yl)-N^2-(2-methoxy-5-methyl-4-(4-methylpiperazin-1-yl)phenyl)pyrimidine-2,4-diamine]",–,5 to 50
